Structures can show the parent of a compound that is named as a salt. Where two headings read alike, the source gives them in different places.
Experiments:
[1] = target: human FLAP (Homo sapiens (Human), UniProt P20292); assay: FLAP binding assay (HTRF format)
How it was run: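 Samples were run in duplicate on each of two assay plates, the results were averaged, and the signal was expressed as an HTRF ratio.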

[2] = tested on: leukotriene pathway in human whole blood (LTB4 levels); assay: Human whole blood assay (A23187-stimulated LTB4); format: cell-based; settings: Homo sapiens, human whole blood diluted 1:1 in RPMI, A23187-stimulated LTB4; read-out: LTB4 IC50 1:1
How it was run: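 Heparinised human whole blood diluted 1:1 in RPMI, pre-incubated 15 min at 37° Celsius with compound, then stimulated with A23187 (7 μg/mL) for 30 min at 37° Celsius. Plasma LTB4 measured by immunoassay kit; IC50 from 4-parameter fit; single replicate per plate, at least one healthy donor.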

[3] = human FLAP wild type, HTRF format, average of two plates, duplicates
[4] = read-out: FLAP Binding wild type HTRF Ki

Sequence of human FLAP (P20292 whole entry): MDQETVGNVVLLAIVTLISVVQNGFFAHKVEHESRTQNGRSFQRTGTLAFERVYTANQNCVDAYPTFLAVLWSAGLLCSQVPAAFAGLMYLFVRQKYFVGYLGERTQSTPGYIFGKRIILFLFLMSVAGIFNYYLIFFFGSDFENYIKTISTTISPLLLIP

Ki [1, 3]	IC50 [2]	Structure (SMILES)	Ki [1, 4]
72 nM	172 nM	Nc1cnc(-c2ccc(-c3ccccc3SCC(=O)N3CCOCC3)cc2F)cn1 [Example 202, 5-{3-Fluoro-2′-[(2-morpholin-4-yl-2-oxoethyl)sulfanyl]biphenyl-4-yl}pyrazin-2-amine]	–
4 nM	128 nM	Nc1cnc(-c2ccc(-c3ccccc3SCCNC(=O)c3ccccc3)cc2F)cn1 [Example 204, N-(2-{[4′-(5-Aminopyrazin-2-yl)-3′-fluorobiphenyl-2-yl]sulfanyl}ethyl)benzamide]	–
8 nM	66 nM	CS(=O)(=O)c1ccc(CSc2ccccc2-c2ccc(-c3cnc(N)cn3)c(F)c2)cc1 [Example 205, 5-(3-Fluoro-2′-{[4-(methylsulfonyl)benzyl]sulfanyl}biphenyl-4-yl)pyrazin-2-amine]	–
2 nM	43 nM	Nc1cnc(-c2ccc(-c3ccc(C(F)(F)F)cc3S(N)(=O)=O)cc2F)cn1 [Example 206, 4′-(5-Aminopyrazin-2-yl)-3′-fluoro-4-(trifluoromethyl)biphenyl-2-sulfonamide]	–
17 nM	205 nM	CS(=O)(=O)c1cc(C(F)(F)F)ccc1-c1ccc(-c2cnc(N)cn2)c(F)c1 [Example 207, 5-[3-Fluoro-2′-(methylsulfonyl)-4′-(trifluoromethyl)biphenyl-4-yl]pyrazin-2-amine]	–
1 nM	34 nM	Nc1cnc(-c2ccc(-c3ccc(C(F)(F)F)cc3S(=O)(=O)N3CCNC(=O)C3)cc2F)cn1 [Example 209, 4-{[4′-(5-Aminopyrazin-2-yl)-3′-fluoro-4-(trifluoromethyl)biphenyl-2-yl]sulfonyl}piperazin-2-one]	–
1 nM	6 nM	CCNS(=O)(=O)c1cc(C(F)(F)F)ccc1-c1ccc(-c2cnc(N)cn2)c(F)c1 [Example 211, 4′-(5-Aminopyrazin-2-yl)-N-ethyl-3′-fluoro-4-(trifluoromethyl)biphenyl-2-sulfonamide]	–
1 nM	5 nM	CN1CCN(S(=O)(=O)c2cc(C(F)(F)F)ccc2-c2ccc(-c3cnc(N)cn3)c(F)c2)CC1 [Example 212, 5-{3-Fluoro-2′-[(4-methylpiperazin-1-yl)sulfonyl]-4′-(trifluoromethyl)biphenyl-4-yl}pyrazin-2-amine]	–
2 nM	25 nM	Nc1cnc(-c2ccc(-c3ccccc3Sc3ncccn3)cc2F)cn1 [Example 213, 5-[3-Fluoro-2′-(pyrimidin-2-ylsulfanyl)biphenyl-4-yl]pyrazin-2-amine hydrochloride]	–
12 nM	138 nM	Nc1ncc(-c2ccc(-c3ccccc3Sc3ccncn3)cc2F)cn1 [Example 214, 5-[3-Fluoro-2′-(pyrimidin-4-ylsulfanyl)biphenyl-4-yl]pyrimidin-2-amine formate salt]	–
2 nM	12 nM	Nc1cnc(-c2ccc(-c3ccccc3Sc3cc(N)ncn3)cc2F)cn1 [Example 215, 6-{[4′-(5-Aminopyrazin-2-yl)-3′-fluorobiphenyl-2-yl]sulfanyl}pyrimidin-4-amine hydrochloride]	–
1 nM	9 nM	Nc1cnc(-c2ccc(-c3ccccc3Sc3ncncc3N)cc2F)cn1 [Example 217, 4-{[4′-(5-Aminopyrazin-2-yl)-3′-fluorobiphenyl-2-yl]sulfanyl}pyrimidin-5-amine hydrochloride]	–
5 nM	31 nM	Nc1cnc(Sc2ccccc2-c2ccc(-c3cnc(N)cn3)c(F)c2)nc1 [Example 219, 2-{[4′-(5-Aminopyrazin-2-yl)-3′-fluorobiphenyl-2-yl]sulfanyl}pyrimidin-5-amine hydrochloride]	–
205 nM	219 nM	CNS(=O)(=O)Cc1ccccc1-c1ccc(-c2cnc(N)cn2)c(F)c1 [Example 220, 1-[4′-(5-Aminopyrazin-2-yl)-3′-fluorobiphenyl-2-yl]-N-methylmethanesulfonamide formic acid salt]	–
300 nM	854 nM	Nc1cnc(-c2ccc(-c3ccccc3CS(=O)(=O)NCCO)cc2F)cn1 [Example 221, 1-[4′-(5-Aminopyrazin-2-yl)-3′-fluorobiphenyl-2-yl]-N-(2-hydroxyethyl)methanesulfonamide formic acid salt]	–
118 nM	638 nM	Nc1cnc(-c2ccc(-c3ccccc3CS(=O)(=O)N3CC(O)C3)cc2F)cn1 [Example 222, 1-({[4′-(5-Aminopyrazin-2-yl)-3′-fluorobiphenyl-2-yl]methyl}sulfonyl)azetidin-3-ol formic acid salt]	–
293 nM	516 nM	C[C@@H](CO)NS(=O)(=O)Cc1ccccc1-c1ccc(-c2cnc(N)cn2)c(F)c1 [Example 224, (S)-1-(4′-(5-Aminopyrazin-2-yl)-3′-fluoro-[1,1′-biphenyl]-2-yl)-N-(1-hydroxypropan-2-yl)-methanesulfonamide]	–
1200 nM	5000 nM	Nc1cnc(-c2ccc(-c3ccccc3CS(N)(=O)=O)cc2F)cn1 [Example 230, 1-[4′-(5-Aminopyrazin-2-yl)-3′-fluorobiphenyl-2-yl]methanesulfonamide hydrochloride]	–
25 nM	238 nM	CCSCc1ccccc1-c1ccc(-c2cnc(N)cn2)c(F)c1 [Example 234, 5-{2′-[(Ethylsulfanyl)methyl]-3-fluorobiphenyl-4-yl}pyrazin-2-amine formic acid salt]	–
36 nM	285 nM	CSCc1ccccc1-c1ccc(-c2cnc(N)cn2)c(F)c1 [Example 235, 5-{3-Fluoro-2′-[(methylsulfanyl)methyl]biphenyl-4-yl}pyrazin-2-amine hydrochloride]	–
57 nM	443 nM	CC(C)SCc1ccccc1-c1ccc(-c2cnc(N)cn2)c(F)c1 [Example 236, 5-(3-Fluoro-2′-{[(1-methylethyl)sulfanyl]methyl}biphenyl-4-yl)pyrazin-2-amine hydrochloride]	–
8 nM	134 nM	Nc1cnc(-c2ccc(-c3ccccc3CSc3nccc(N)n3)cc2F)cn1 [Example 237, 2-(((4′-(5-Aminopyrazin-2-yl)-3′-fluoro-[1,1′-biphenyl]-2-yl)methyl)thio)pyrimidin-4-amine hydrochloride]	–

Structure (SMILES)	Ki [1, 3]	IC50 [2]	Ki [1, 4]
Nc1cnc(-c2ccc(-c3ccccc3Sc3nccc(N)n3)cc2F)cn1 [Example 216, 2-{[4′-(5-Aminopyrazin-2-yl)-3′-fluorobiphenyl-2-yl]sulfanyl}pyrimidin-4-amine hydrochloride]	–	16 nM	2 nM
Nc1cnc(-c2ccc(-c3ccccc3Sc3cnccn3)cc2F)cn1 [Example 218, 5-[3-Fluoro-2′-(pyrazin-2-ylsulfanyl)biphenyl-4-yl]pyrazin-2-amine hydrochloride]	–	29 nM	3 nM
Nc1cnc(-c2ccc(-c3ccccc3CS(=O)(=O)N[C@H]3CC[C@H](O)CC3)cc2F)cn1 [Example 226, 1-[4′-(5-Aminopyrazin-2-yl)-3′-fluorobiphenyl-2-yl]-N-(trans-4-hydroxycyclohexyl)-methanesulfonamide formic acid salt]	–	329 nM	211 nM
CCNS(=O)(=O)Cc1ccccc1-c1ccc(-c2cnc(N)cn2)c(F)c1 [Example 231, 1-[4′-(5-Aminopyrazin-2-yl)-3′-fluorobiphenyl-2-yl]-N-ethylmethanesulfonamide formate salt]	–	564 nM	135 nM

Source: patent publication US9079866B2, “Flap modulators” (JANSSEN PHARMACEUTICA NV, priority 2013, dated 2015)
